Data on six compounds can be found in US9206200B2, “N-linked lactam M1 receptor positive allosteric mogulators” (Merck Sharp & Dohme Corp., priority 2011, dated 2015).

Like-named read-outs stand apart in the source and are kept apart here.

In the experiment the target is T1, acetylcholine muscarinic M1 receptor (Homo sapiens, UniProt P11229).
T1 construct: expressed in transfected cells; host or cells: CHOnfat cells (CHO cells with an NFAT reporter) expressing hM1, kept under Geneticin selection
T1 sequence (P11229 1-460): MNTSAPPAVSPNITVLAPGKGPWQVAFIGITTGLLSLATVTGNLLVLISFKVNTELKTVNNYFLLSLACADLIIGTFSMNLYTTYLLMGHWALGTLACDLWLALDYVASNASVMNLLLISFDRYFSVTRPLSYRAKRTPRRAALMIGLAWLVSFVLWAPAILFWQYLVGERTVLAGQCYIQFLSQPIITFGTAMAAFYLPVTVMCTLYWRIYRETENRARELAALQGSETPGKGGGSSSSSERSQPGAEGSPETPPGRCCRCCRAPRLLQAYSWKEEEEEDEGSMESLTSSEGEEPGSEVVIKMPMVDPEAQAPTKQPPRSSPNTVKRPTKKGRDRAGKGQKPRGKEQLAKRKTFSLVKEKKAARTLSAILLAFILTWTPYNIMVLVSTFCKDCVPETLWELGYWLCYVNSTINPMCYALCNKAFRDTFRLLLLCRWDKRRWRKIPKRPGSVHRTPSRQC
The experiment can be described thus: muscarinic FLIPR assay: intracellular calcium in CHOnfat/hM1 cells, potentiation of EC20 acetylcholine. Format: cell-based. To be noted: EC20 acetylcholine (3 nM final). In short, it runs like this: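 CHOnfat cells stably expressing human M1, Fluo-4AM-loaded, in HBSS with 20 mM HEPES, 2.5 mM probenecid, 1% BSA. Compounds preincubated 4 min (printed "4 mM") before an EC20 acetylcholine challenge (3 nM final). FLIPR intracellular Ca²⁺ signal compared with 3 nM acetylcholine alone to detect potentiation.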
A general note: Calcium assays in cells follow changes in intracellular calcium, usually with a dye or a luminescent sensor.

Setting [1] is: Table 2, CHOnfat/hM1 cells, FLIPR, read-out: M1 Pot.

Regarding `O=C1c2cc(CN3CCC(F)(c4ccccn4)CC3)c3cccnc3c2CN1C1CCCCC1O` (stereo not drawn) [Example 146, 5-[(4-fluoro-4-pyridin-2-ylpiperidin-1-yl)methyl]-8-(2-hydroxycyclohexyl)-8,9-dihydro-7H-pyrrolo[3,4-h]quinolin-7-one], the EC50 under setting [1] worked out at 11 nM.

For the compound `CN1CCN(Cc2cc3c(c4ccccc24)CN([C@H]2CCCC[C@@H]2O)C3=O)CC1` [Example 12, 2-[(1S,2S)-2-hydroxycyclohexyl]-5-[(4-methylpiperazin-1-yl)methyl]-1,2-dihydro-3H-benzo[e]isoindol-3-one], the EC50 (Table 1, CHOnfat/hM1 cells, FLIPR, read-out: M1 Pot.) stood at 1300 nM.

In the case of `COc1cccc(C2(C#N)CCN(Cc3cc4c(c5ncccc35)CN([C@H]3CCCC[C@@H]3O)C4=O)CC2)n1` [Example 154, 1-({8-[(1S,2S)-2-hydroxycyclohexyl]-7-oxo-8,9-dihydro-7H-pyrrolo[3,4-h]quinolin-5-yl}methyl)-4-(6-methoxypyridin-2-yl)piperidine-4-carbonitrile], the EC50 under setting [1] came to 19 nM.

On to `COc1ccc(N2CCN(Cc3cc4c(c5ncccc35)C(C)N(C3CCCCC3O)C4=O)CC2)cc1` (stereo not drawn) [Example 170, 8-(2-hydroxycyclohexyl)-5-{[4-(4-methoxyphenyl)piperazin-1-yl]methyl}-9-methyl-8,9-dihydro-7H-pyrrolo[3,4-h]quinolin-7-one], for which the EC50 under setting [1] was 100 nM.

On to `CC1c2c(cc(CN3CCC(c4ccccc4)CC3)c3cccnc23)C(=O)N1C1CCCCC1O` (stereo not drawn) [Example 141, 8-(2-hydroxycyclohexyl)-9-methyl-5-[(4-phenylpiperidin-1-yl)methyl]-8,9-dihydro-7H-pyrrolo[3,4-h]quinolin-7-one], for which the EC50 under setting [1] was 490 nM.

As for `CC1c2c(cc(CN3CCC(C#N)(c4ccccn4)CC3)c3ccccc23)C(=O)N1[C@H]1CCCC[C@@H]1O` (stereo partly drawn) [Example 3, 1-({2-[(1S,2S)-2-Hydroxycyclohexyl]-1-methyl-3-oxo-2,3-dihydro-1H-benzo[e]isoindol-5-yl}methyl)-4-(pyridine-2-yl)piperidine-4-carbonitrile], the EC50 (Table 3, inflection point calculated from the FLIPR values, read-out: IP Value) was 19 nM.
